Patent publication US20210213041A1, “REPEAT RNA AS BIOMARKERS OF TUMOR IMMUNE RESPONSE” (The General Hospital Corporation, priority 2018, published 2021)

System: melanoma
Assay: Immunotherapy response of melanoma patients by standard clinical imaging criteria (CT scan change), tumors classed by HSATII RNA-ISH
Format: in vivo, human
Procedure: All combined RNA-ISH and IHC assays are performed as follows: Monoclonal antibodies for immune cells (T-cell subsets CD3, CD4, CD8, FOXP3; Macrophages CD68, CD163; B-cells CD20; NK cells CD16, CD56) and RNA ISH probes for repeat RNAs (HSATII, HERV-K, HERV-H, LINE1) were sequentially applied on a single histologic slide, and contrasting chromogens were used to visualize the antibody: brown (diaminobenzidine [DAB]) for immune marker and RNA: red (fast red) for repeat RNA. Paraffin-embedded sections were mounted on coated slides and were placed in an oven for 60 minutes at 60° C. The sequential double-staining protocol was performed using the Leica Bond Rx automated immunostainer. […]
As shown herein, HSATII low melanomas respond to immunotherapy including anti-PD1/PDL1 and anti-CTLA4 therapies (FIG. 5). Briefly, a cohort of 20 melanoma patients who received either anti-PD1/PDL1 or anti-CTLA4 therapy that had formalin fixed paraffin embedded (FFPE) tissue were evaluated with HSATII RNA-ISH combined with CD3 T cell IHC assay. Tumors were evaluated for HSATII RNA levels (HIGH vs LOW) and CD3 T cell infiltrates quantitated by manual counting of cells in a 400×200 micron area by a pathologist. […] Tumors were evaluated for HSATII RNA levels (HIGH vs LOW) and CD163 macrophage infiltrates quantitated by manual counting of cells in a 400×200 micron area by a pathologist.

## ipilimumab
HSATII LOW tumors (high CD3 T-cells)
  immunotherapy response as determined by standard clinical imaging criteria (CT scan change): responder

## nivolumab
HSATII HIGH tumors (low CD3 T-cells)
  immunotherapy response as determined by standard clinical imaging criteria (CT scan change): non-responder
